In patent US20240287076A1, “COMPOUNDS FOR TARGETING DEGRADATION OF BRUTON'S TYROSINE KINASE” (BIOGEN MA INC., priority 2021, published 2024):

The compounds below were run against T1, BTK (Homo sapiens, UniProt Q06187) (assay: BTK degradation assay using the HiBiT Method (Nano-Glo HiBiT Lytic Assay, GM01501.3 cells)). Settings: HiBiT Degradation on GM01501.3 BTK @ 6 hours.
T1 construct: The GM01501.3 cell line endogenously expresses BTK with a HiBiT fusion tag via CRISPR knock-in at its C-terminal region; endogenous in cells; host or cells: GM01501.3 (GM01501 cells engineered by CRISPR knock-in of HiBiT at the BTK locus)
T1 sequence (Q06187 whole entry, the tested form may be a part): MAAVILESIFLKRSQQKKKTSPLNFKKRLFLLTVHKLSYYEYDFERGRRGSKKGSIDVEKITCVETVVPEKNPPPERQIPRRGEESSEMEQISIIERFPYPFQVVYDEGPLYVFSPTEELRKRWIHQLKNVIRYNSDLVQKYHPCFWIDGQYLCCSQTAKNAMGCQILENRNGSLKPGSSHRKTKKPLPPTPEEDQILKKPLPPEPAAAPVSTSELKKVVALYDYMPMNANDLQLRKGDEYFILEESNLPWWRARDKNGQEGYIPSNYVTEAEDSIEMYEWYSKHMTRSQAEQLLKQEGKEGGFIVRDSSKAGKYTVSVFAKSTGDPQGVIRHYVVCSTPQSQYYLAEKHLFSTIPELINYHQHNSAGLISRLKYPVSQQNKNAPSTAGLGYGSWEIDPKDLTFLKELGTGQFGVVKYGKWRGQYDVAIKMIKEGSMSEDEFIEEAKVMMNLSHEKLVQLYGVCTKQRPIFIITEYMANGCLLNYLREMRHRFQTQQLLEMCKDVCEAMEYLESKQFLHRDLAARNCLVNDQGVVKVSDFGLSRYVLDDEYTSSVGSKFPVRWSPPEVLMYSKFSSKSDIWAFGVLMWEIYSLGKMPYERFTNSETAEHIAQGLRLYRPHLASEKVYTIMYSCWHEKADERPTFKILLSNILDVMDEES
Format: cell-based
Summary of the method: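 Degradation read-out: HiBiT luminescence after lytic reagent addition, giving DC50. Compounds dosed from 10 μM in 11 half-log steps (duplicate) onto GM01501.3 cells, whose endogenous BTK carries a C-terminal HiBiT knock-in tag; 6 h exposure, 37 °C, 5% CO2.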

DC50, < 100 nM:
Cc1cc(-c2ncnn3cc(-c4ccc5c(c4)CCN(CCCc4ccc(NC6CCC(=O)NC6=O)cc4)C5)cc23)ccc1CNC(=O)c1noc(C(C)(C)C)n1 (stereo not drawn) [Example 58, 5-tert-butyl-N-[[4-[6-[2-[3-[4-[(2,6-dioxo-3-piperidyl)amino]phenyl]propyl]-3,4-dihydro-1H-isoquinolin-6-yl]pyrrolo[2,1-f][1,2,4]triazin-4-yl]-2-methyl-phenyl]methyl]-1,2,4-oxadiazole-3-carboxamide]
Cc1cc(-c2ncnn3cc(-c4ccc5c(c4)CN(CCCc4ccc(NC6CCC(=O)NC6=O)cc4)CC5)cc23)ccc1CNC(=O)c1noc(C(C)(C)C)n1 (stereo not drawn) [Example 59, 5-tert-butyl-N-[[4-[6-[2-[3-[4-[(2,6-dioxo-3-piperidyl)amino]phenyl]propyl]-3,4-dihydro-1H-isoquinolin-7-yl]pyrrolo[2,1-f][1,2,4]triazin-4-yl]-2-methyl-phenyl]methyl]-1,2,4-oxadiazole-3-carboxamide]
Cc1cc(-c2ncnn3cc(-c4ccc5c(c4)CN(CCc4ccc(NC6CCC(=O)NC6=O)cc4)CC5)cc23)ccc1CNC(=O)c1noc(C(C)(C)C)n1 (stereo not drawn) [Example 60, 5-tert-butyl-N-[[4-[6-[2-[2-[4-[(2,6-dioxo-3-piperidyl)amino]phenyl]ethyl]-3,4-dihydro-1H-isoquinolin-7-yl]pyrrolo[2,1-f] [1,2,4]triazin-4-yl]-2-imethyl-phenyl]methyl]-1,2,4-oxadiazole-3-carboxamide]
Cc1cc(-c2ncnn3cc(-c4ccc(CN5CCC(c6ccc(NC7CCC(=O)NC7=O)cc6)CC5)cc4)cc23)ccc1CNC(=O)c1ccc(C(F)F)cc1 (stereo not drawn) [Example 61, 4-(difluoromethyl)-N-[[4-[6-[4-[[4-[4-[(2,6-dioxo-3-piperidyl)amino]phenyl]-1-piperidyl]methyl]phenyl]pyrrolo[2,1-f][1,2,4]triazin-4-yl]-2-methyl-phenyl]methyl]benzamide]
Cc1cc(-c2ncnn3cc(-c4ccc(CN5CCC(c6ccc(NC7CCC(=O)NC7=O)cc6)CC5)cc4)cc23)ccc1CNC(=O)c1ccc(Cl)cc1 (stereo not drawn) [Example 62, 4-chloro-N-[[4-[6-[4-[[4-[4-[(2,6-dioxo-3-piperidyl)amino]phenyl]-1-piperidyl]methyl]phenyl]pyrrolo[2,1-f][1,2,4]triazin-4-yl]-2-methyl-phenyl]methyl]benzamide]
Cc1cc(-c2ncnn3cc(-c4ccc(CN5CCC(c6ccc(NC7CCC(=O)NC7=O)cc6)CC5)cc4)cc23)ccc1CNC(=O)c1ccc(C(F)(F)F)nc1 (stereo not drawn) [Example 63, N-[[4-[6-[4-[[4-[4-[(2,6-dioxo-3-piperidyl)amino]phenyl]-1-piperidyl]methyl]phenyl]pyrrolo[2,1-f][1,2,4]triazin-4-yl]-2-methyl-phenyl]methyl]-6-(trifluoromethyl)pyridine-3-carboxamide]
Cc1cc(-c2ncnn3cc(-c4ccc(CN5CCC(c6ccc(NC7CCC(=O)NC7=O)cc6)CC5)cc4)cc23)ccc1CNC(=O)c1ccc(F)cc1 (stereo not drawn) [Example 64, N-[[4-[6-[4-[[4-[4-[(2,6-dioxo-3-piperidyl)amino]phenyl]-1-piperidyl]methyl]phenyl]pyrrolo[2,1-f][1,2,4]triazin-4-yl]-2-methyl-phenyl]methyl]-4-fluoro-benzamide]
Cc1cc(-c2ncnn3cc(-c4ccc(CN5CCC(c6ccc(NC7CCC(=O)NC7=O)cc6)CC5)cc4)cc23)ccc1CNC(=O)c1ccc(F)c(F)c1 (stereo not drawn) [Example 65, N-[[4-[6-[4-[[4-[4-[(2,6-dioxo-3-piperidyl)amino]phenyl]-1-piperidyl]methyl]phenyl]pyrrolo[2,1-f][1,2,4]triazin-4-yl]-2-methyl-phenyl]methyl]-3,4-difluoro-benzamide]
COc1ccc(C(=O)NCc2ccc(-c3ncnn4cc(-c5ccc(CN6CCC(c7ccc(NC8CCC(=O)NC8=O)cc7)CC6)cc5)cc34)cc2C)cc1 (stereo not drawn) [Example 66, N-[[4-[6-[4-[[4-[4-[(2,6-dioxo-3-piperidyl)amino]phenyl]-1-piperidyl]methyl]phenyl]pyrrolo[2,1-f][1,2,4]triazin-4-yl]-2-methyl-phenyl]methyl]-4-methoxy-benzamide]
CCc1ccc(C(=O)NCc2ccc(-c3ncnn4cc(-c5ccc(CN6CCC(c7ccc(NC8CCC(=O)NC8=O)cc7)CC6)cc5)cc34)cc2C)cc1 (stereo not drawn) [Example 67, N-[[4-[6-[4-[[4-[4-[(2,6-dioxo-3-piperidyl)amino]phenyl]-1-piperidyl]methyl]phenyl]pyrrolo[2,1-f][1,2,4]triazin-4-yl]-2-methyl-phenyl]methyl]-4-ethyl-benzamide]
Cc1ccc(C(=O)NCc2ccc(-c3ncnn4cc(-c5ccc(CN6CCC(c7ccc(NC8CCC(=O)NC8=O)cc7)CC6)cc5)cc34)cc2C)cc1 (stereo not drawn) [Example 68, N-[[4-[6-[4-[[4-[4-[(2,6-dioxo-3-piperidyl)amino]phenyl]-1-piperidyl]methyl]phenyl]pyrrolo[2,1-f][1,2,4]triazin-4-yl]-2-methyl-phenyl]methyl]-4-methyl-benzamide]
Cc1cc(-c2ncnn3cc(-c4ccc(CN5CCC(c6ccc(NC7CCC(=O)NC7=O)cc6)CC5)cc4)cc23)ccc1CNC(=O)c1ccc(C(C)C)nc1 (stereo not drawn) [Example 69, N-[[4-[6-[4-[[4-[4-[(2,6-dioxo-3-piperidyl)amino]phenyl]-1-piperidyl]methyl]phenyl]pyrrolo[2,1-f][1,2,4]triazin-4-yl]-2-methyl-phenyl]methyl]-6-isopropyl-pyridine-3-carboxamide]
Cc1cc(-c2ncnn3cc(-c4ccc(CN5CCC(c6ccc(NC7CCC(=O)NC7=O)cc6)CC5)cc4)cc23)ccc1CNC(=O)COCC(C)(C)C (stereo not drawn) [Example 70, 2-(2,2-dimethylpropoxy)-N-[[4-[6-[4-[[4-[4-[(2,6-dioxo-3-piperidyl)amino]phenyl]-1-piperidyl]methyl]phenyl]pyrrolo[2,1-f][1,2,4]triazin-4-yl]-2-methyl-phenyl]methyl]acetamide]
Cc1cc(-c2ncnn3cc(-c4ccc(CN5CCC(c6ccc(NC7CCC(=O)NC7=O)cc6)CC5)cc4)cc23)ccc1CNC(=O)c1cc2c(s1)CCCC2 (stereo not drawn) [Example 71, N— [[4-[6-[4-[[4-[4-[(2,6-dioxo-3-piperidyl)amino]phenyl]-1-piperidyl]methyl]phenyl]pyrrolo[2,1-f][1,2,4]triazin-4-yl]-2-methyl-phenyl]methyl]-4,5,6,7-tetrahydrobenzothiophene-2-carboxamide]
Cc1cc(-c2ncnn3cc(-c4ccc(CN5CCC(c6ccc(NC7CCC(=O)NC7=O)cc6)CC5)cc4)cc23)ccc1CNC(=O)c1ccc(C(C)(F)F)cc1 (stereo not drawn) [Example 72, 4-(1,1-difluoroethyl)-N-[[4-[6-[4-[[4-[4-[(2,6-dioxo-3-piperidyl)amino]phenyl]-1-piperidyl]methyl]phenyl]pyrrolo[2,1-f][1,2,4]triazin-4-yl]-2-methyl-phenyl]methyl]benzamide]
Cc1cc(-c2ncnn3cc(-c4ccc(CN5CCC(c6ccc(NC7CCC(=O)NC7=O)cc6)CC5)cc4)cc23)ccc1CNC(=O)c1ccc(C(F)(F)F)cc1 (stereo not drawn) [Example 73, N-[[4-[6-[4-[[4-[4-[(2,6-dioxo-3-piperidyl)amino]phenyl]-1-piperidyl]methyl]phenyl]pyrrolo[2,1-f][1,2,4]triazin-4-yl]-2-methyl-phenyl]methyl]-4-(trifluoromethyl)benzamide]
Cc1cc(-c2ncnn3cc(-c4ccc(CN5CCC(c6ccc(NC7CCC(=O)NC7=O)cc6)CC5)cc4)cc23)ccc1CNC(=O)CCCC(C)(C)C (stereo not drawn) [Example 74, N-[[4-[6-[4-[[4-[4-[(2,6-dioxo-3-piperidyl)amino]phenyl]-1-piperidyl]methyl]phenyl]pyrrolo[2,1-f][1,2,4]triazin-4-yl]-2-methyl-phenyl]methyl]-5,5-dimethyl-hexanamide]
Cc1cc(-c2ncnn3cc(-c4ccc(CN5CCC(c6ccc(NC7CCC(=O)NC7=O)cc6)CC5)cc4)cc23)ccc1CNC(=O)C12CC(C(C)(C)C)(C1)C2 (stereo not drawn) [Example 75, 3-tert-butyl-N-[[4-[6-[4-[[4-[4-[(2,6-dioxo-3-piperidyl)amino]phenyl]-1-piperidyl]methyl]phenyl]pyrrolo[2,1-f][1,2,4]triazin-4-yl]-2-methyl-phenyl]methyl]bicyclo[1.1.1]pentane-1-carboxamide]
Cc1cc(-c2ncnn3cc(-c4ccc(CN5CCC(c6ccc(NC7CCC(=O)NC7=O)cc6)CC5)cc4)cc23)ccc1CNC(=O)c1ncc(C(C)C)cc1F (stereo not drawn) [Example 76, N-[[4-[6-[4-[[4-[4-[(2,6-dioxo-3-piperidyl)amino]phenyl]-1-piperidyl]methyl]phenyl]pyrrolo[2,1-f][1,2,4]triazin-4-yl]-2-methyl-phenyl]methyl]-3-fluoro-5-isopropyl-pyridine-2-carboxamide]
Cc1cc(-c2ncnn3cc(-c4ccc(CN5CCC(c6ccc(NC7CCC(=O)NC7=O)cc6)CC5)cc4)cc23)ccc1CNC(=O)c1cc2ccccc2s1 (stereo not drawn) [Example 77, N-[[4-[6-[4-[[4-[4-[(2,6-dioxo-3-piperidyl)amino]phenyl]-1-piperidyl]methyl]phenyl]pyrrolo[2,1-f][1,2,4]triazin-4-yl]-2-methyl-phenyl]methyl]benzothiophene-2-carboxamide]
Cc1cc(-c2ncnn3cc(-c4ccc(CN5CCC(c6ccc(NC7CCC(=O)NC7=O)cc6)CC5)cc4)cc23)ccc1CNC(=O)c1coc(C(C)(C)C)n1 (stereo not drawn) [Example 78, 2-tert-butyl-N-[[4-[6-[4-[[4-[4-[(2,6-dioxo-3-piperidyl)amino]phenyl]-1-piperidyl]methyl]phenyl]pyrrolo[2,1-f][1,2,4]triazin-4-yl]-2-methyl-phenyl]methyl]oxazole-4-carboxamide]
